Source: the NIST ThermoML archive (doi:10.1021/acs.jced.8b00310)

Assay: molar heat capacity at constant pressure
Conditions: Gas, Flow calorimetry

FC(F)C(F)(F)F [pentafluoroethane]
Conditions | molar heat capacity at constant pressure [J/K/mol]
303.15 K, 1500 kPa | 129.62
307.15 K, 1500 kPa | 123.62
311.15 K, 1500 kPa | 121.1
313.15 K, 1500 kPa | 121.58
314.15 K, 2000 kPa | 147.63
315.15 K, 2000 kPa | 145.71
316.15 K, 2000 kPa | 145.35
317.15 K, 2000 kPa | 144.27
318.15 K, 2000 kPa | 143.43
319.15 K, 2000 kPa | 140.18
319.15 K, 2200 kPa | 158.55
320.15 K, 2000 kPa | 138.38
320.15 K, 2200 kPa | 159.03
321.15 K, 2000 kPa | 139.7
321.15 K, 2200 kPa | 156.99
322.15 K, 2000 kPa | 135.62
323.15 K, 2200 kPa | 153.75
323.15 K, 2400 kPa | 173.91
324.15 K, 2400 kPa | 168.03
325.15 K, 2400 kPa | 161.31
326.15 K, 2400 kPa | 159.03
327.15 K, 2400 kPa | 157.47
343.15 K, 500 kPa | 103.22
343.15 K, 650 kPa | 105.62
343.15 K, 1000 kPa | 108.26
343.15 K, 1500 kPa | 115.7
343.15 K, 2000 kPa | 123.14
343.15 K, 2200 kPa | 128.3
343.15 K, 2400 kPa | 134.42
